{"source": "patent US10286065B2", "about": "(priority 2014, dated 2019)", "origin": "cited, not measured here"}
{"smiles": "CCC(=O)O[C@]1(C(=O)SCF)[C@H](C)C[C@H]2[C@@H]3C[C@H](F)C4=CC(=O)C=C[C@]4(C)[C@@]3(F)[C@@H](O)C[C@@]21C", "note": "[Fluticasone propionate]", "values": [{"measurement": "solubility in dimethyl sulfoxide and dimethylformamide", "setting": "dimethyl sulfoxide and dimethylformamide", "result": "freely soluble"}, {"measurement": "solubility in methanol and 95% ethanol", "setting": "methanol and 95% ethanol", "result": "slightly soluble"}, {"measurement": "solubility in water", "setting": "water", "result": "practically insoluble"}]}
